From patent US20210290557A1, “MULTI-PARTICULATE PHARMACEUTICAL COMPOSITION, IMMEDIATE RELEASE PELLETS, SUSTAINED RELEASE PELLETS, ENTERIC RELEASE PELLETS AND USE THEREOF” (Industrial Technology Research Institute, priority 2019, published 2021)

Test: Solubility test for sobrerol in dissolution medium with different pH and purified water
Format: physicochemical
Protocol: 1. The Preparation of Dissolution Medium with Different pH Levels:
(1) Dissolution Medium with pH 2.5
7.164 g of disodium hydrogen phosphate (containing 12 molecules of water) was added to a 100 mL volumetric flask, then purified water was added to quantify to 100 mL, and then stirred using a stir bar. After the disodium hydrogen phosphate (containing 12 molecules of water) in the volumetric flask was completely dissolved, a 0.2 M disodium hydrogen phosphate solution was obtained.
19.213 g of anhydrous citric acid was assed to a 1 L volumetric flask, then purified water water was added to quantify to 1 L, and then stirred using a stir bar. After the anhydrous citric acid in the volumetric flask was completely dissolved, a 0.1 M citric acid solution was obtained.
Next, According to the list of formulas of McIlvaine buffer with different pH values, 0.2 M […] solution and 0.1 M citric acid solution were mixed at a ratio of 1.71:18.29 to obtain a dissolution medium with pH 2.5.
(2) Dissolution Medium with pH 4.5
15.6 g of Sodium dihydrogen phosphate (containing 2 molecules of water) was added to a 1 L volumetric flask, then purified water water was added to quantify to 1 L, and then stirred using a stir bar. After the sodium dihydrogen phosphate (containing 2 molecules of water) in the volumetric flask was completely dissolved, a phosphate dissolution medium with pH 4.5 was obtained.
(3) Dissolution Medium with pH 6.8
7.8 g of Sodium dihydrogen phosphate (containing 2 molecules of water) and 0.94 g of sodium hydroxide were added to a 1 L volumetric flask, then purified water water was added to quantify to 1 L, and then stirred using a stir bar. […]
250 mL of dissolution medium prepared above or purified water water was added to a beaker and a stir bar was added for stirring. […] Sobrerol was continuously added until sobrerol cannot be completely dissolved within 30 minutes, and then the total amount of sobrerol added was counted, that was, the actual solubility limit of sobrerol.

SMILES: CC1=CCC(C(C)(C)O)CC1O (stereo not drawn) [sobrerol]
- soluble amount of sobrerol (actual solubility limit) (250 mL dissolution medium with pH 2.5, 4.5, 6.8 or purified water, all media): > 900 mg
- effect of pH on solubility of sobrerol (dissolution medium with different pH and purified water): not affected by pH
- solubility classification according to FDA Biopharmaceutics Classification System guideline (soluble amount compared with the daily total of 900 mg): meets the specifications for high solubility drugs
